Values joined by “and” are separate entries in the source; they are usually repeats but may differ in a detail not shown here. Identical values can stand only once.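 Tested at 5 concentrations; 48 h exposure; 96-well plates; endpoints linearly interpolated, else capped at highest concentration. Here, GI50 denotes the concentration required for 50% inhibition of growth.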 Active and inactive are the calls of the source. No stated cut-off is given here; in the data, active = GI50 up to about 1.1 µM and inactive = higher.
Columns and labels:
Assay in all cases: NCI tumour cell line growth inhibition, 48 h
[1] = tested on: A549
[2] = tested on: ACHN
[3] = tested on: HCC 2998
[4] = tested on: MDA-MB-231
[5] = tested on: NCI-H23
[6] = tested on: RPMI-8226
[7] = tested on: SF-268
[8] = tested on: SK-MEL-5
[9] = tested on: SNB-19
[10] = tested on: SW-620
[11] = tested on: T47D
[12] = tested on: TK-10
[13] = tested on: UACC-257
[14] = tested on: 786-0
[15] = tested on: BT-549
[16] = tested on: DMS-114
[17] = tested on: KM-20L2
[18] = tested on: LXFL 529
[19] = tested on: SNB-78
[20] = tested on: XF498

Measured: GI50

CN(C)c1ccc(/C=C2\C[C@H]3[C@@H]4CCc5cc(O)ccc5[C@H]4CC[C@]3(C)C2=O)cc1
inactive: [1] > 100 µM | [2] 56.1 µM | [3] > 100 µM | [4] 16.5 µM | [5] > 100 µM | [6] > 100 µM | [7] 21.3 µM | [8] > 100 µM | [9] > 100 µM | [10] > 100 µM | [11] > 100 µM | [12] > 100 µM | [13] > 100 µM

NNc1nc2ccccc2s1
inactive: [14] > 100 µM | [1] > 100 µM | [2] > 100 µM | [15] > 100 µM | [3] > 100 µM | [4] > 100 µM | [5] > 100 µM | [6] 72.8 µM | [7] > 100 µM | [8] > 100 µM | [9] > 100 µM | [10] > 100 µM | [11] 55.2 µM | [12] > 100 µM | [13] > 100 µM

CCn1c2ccccc2c2cc(NC(=O)c3c(C)[nH]c(=O)[nH]c3=S)ccc21
inactive: [15] 31 µM | [3] 47.6 µM | [4] 19.8 µM | [5] 38 µM | [6] 40.6 µM | [8] 42.1 µM | [9] 49.1 µM | [10] 31.7 µM | [11] > 100 µM | [12] 53.6 µM | [13] 70.3 µM

COc1cccc(NC(=O)CC(=O)NNCC(=O)Nc2nnc(-c3ccc(N(CCC#N)S(=O)(=O)c4ccccc4)cc3)s2)c1
inactive: [1] 67.5 µM | [2] 34.8 µM | [16] 41.6 µM | [3] > 100 µM | [17] > 100 µM | [18] 66.4 µM | [5] 48.3 µM | [6] 66.4 µM | [7] 82.4 µM | [8] 37.6 µM | [9] > 100 µM | [19] > 100 µM | [10] > 100 µM | [12] > 100 µM | [20] 73.8 µM

CN1CC2(CCCCC2)C(O)C12C=CCCC2 (configuration not stated)
inactive: [14] > 100 µM | [1] > 100 µM | [16] > 100 µM | [3] > 100 µM | [17] > 100 µM | [18] > 100 µM | [5] > 100 µM | [6] > 100 µM | [7] > 100 µM | [8] > 100 µM | [9] > 100 µM | [19] > 100 µM | [10] > 100 µM | [12] > 100 µM | [13] > 100 µM | [20] > 100 µM

C1=Cc2nccc3cc4c(c(c23)N1)OCO4
inactive: [14] 4.03 µM | [1] 5.3 µM | [2] 4.52 µM | [15] 20.3 µM | [3] 8.95 µM | [4] 10.3 µM | [5] 6.92 µM | [6] 4.53 µM | [7] 8.13 µM | [9] 7.08 µM | [10] 5.68 µM | [11] 6.4 µM | [12] 14.7 µM | [13] 17.5 µM

COc1ccc(/C(Cl)=C(\C=O)c2ccc(Cl)c(Cl)c2)cc1OC
inactive: [2] 4.56 µM | [16] 12.4 µM | [17] 6 µM | [18] 3.55 µM | [5] 2.9 µM | [6] 2.08 µM | [7] 3.59 µM | [8] 12.8 µM | [9] 14.9 µM | [19] 4.28 µM | [10] 4.12 µM | [12] 19 µM | [20] 3.05 µM

C1CCC(OC2CSC2)OC1 (configuration not stated)
inactive: [1] > 100 µM | [2] > 100 µM | [3] > 100 µM | [4] > 100 µM | [5] > 100 µM | [7] > 100 µM | [8] > 100 µM | [9] > 100 µM | [10] > 100 µM | [11] > 100 µM | [12] > 100 µM | [13] > 100 µM

CN1c2ccccc2NC(CC(=O)O)C2CC=CN21 (configuration not stated)
inactive: [14] > 100 µM | [1] > 100 µM | [2] > 100 µM | [16] > 100 µM | [17] > 100 µM | [18] > 100 µM | [5] > 100 µM | [6] > 100 µM | [7] > 100 µM | [8] > 100 µM | [9] > 100 µM | [10] > 100 µM | [12] > 100 µM | [13] > 100 µM | [20] > 100 µM

CCc1cc(=O)n(/C(C)=C/c2ccccc2)n1C
inactive: [1] > 100 µM | [2] > 100 µM | [15] > 100 µM | [3] > 100 µM | [4] > 100 µM | [5] > 100 µM | [6] > 100 µM | [7] > 100 µM | [8] > 100 µM | [9] > 100 µM | [10] > 100 µM | [11] > 100 µM | [12] > 100 µM | [13] > 100 µM

COc1cc(C(C)O)c[n+](Cc2ccccc2)c1 (configuration not stated)
inactive: [14] > 100 µM | [1] > 100 µM | [2] > 100 µM | [16] > 100 µM | [3] > 100 µM | [17] > 100 µM | [18] > 100 µM | [5] > 100 µM | [6] > 100 µM | [7] > 100 µM | [8] > 100 µM | [9] > 100 µM | [19] > 100 µM | [10] > 100 µM | [12] > 100 µM | [13] > 100 µM | [20] > 31.6 µM

COc1cc2ccnc3c2c(c1OC)N(C)C=C3
inactive: [14] 17.2 µM | [1] 17.7 µM | [2] 16.1 µM | [15] 33 µM | [3] 16.4 µM | [4] 29.1 µM | [5] 19.4 µM | [6] 24.4 µM | [7] 35.2 µM | [9] 25.2 µM | [10] 29.6 µM | [11] 32.3 µM | [12] 35.3 µM | [13] 34.4 µM

O=C(CC(=O)N1N=C(c2ccccc2)C(/N=N/c2ccc(C(=O)O)cc2)C1=O)Nc1ccc(F)cc1 (configuration not stated)
inactive: [14] 21.2 µM | [1] 39.2 µM | [2] 23.6 µM | [16] 34.5 µM | [17] 46.5 µM | [18] 23.5 µM | [5] 23.4 µM | [6] 27.5 µM | [7] 15.9 µM | [8] 16.7 µM | [9] 36.4 µM | [19] 42.8 µM | [10] 59.3 µM | [12] 33.1 µM | [13] 58.9 µM | [20] 20.4 µM

CCOC(=O)C(C)N1C(=O)c2ccccc2S1(=O)=O (configuration not stated)
inactive: [1] > 100 µM | [16] > 100 µM | [3] > 100 µM | [5] > 100 µM | [6] > 100 µM | [7] > 100 µM | [8] > 100 µM | [9] > 100 µM | [10] > 100 µM | [13] > 100 µM | [20] > 100 µM

Cc1c2cnccc2c(C)c2c1c1ccccc1n2CCCCCCCl
inactive: [1] > 48.2 µM | [16] > 40.3 µM | [3] > 46.8 µM | [17] 25.1 µM | [5] 38.6 µM | [6] 13.2 µM | [7] > 45 µM | [8] > 50 µM | [9] 40.4 µM | [19] 32.9 µM | [10] 30 µM | [13] > 33.1 µM | [20] 33 µM

C#CC(C)(C)Oc1cc(OC)c2c(=O)c3ccccc3n(C)c2c1
inactive: [14] 7.46 µM | [1] 9.86 µM | [2] 12.7 µM | [3] 30.7 µM | [4] 15.2 µM | [6] 4.4 µM | [7] 11.6 µM | [8] 11.1 µM | [9] 14.7 µM | [10] 31.9 µM | [11] 2.84 µM | [12] 23.6 µM | [13] 10.9 µM

CN(C)C(=O)OC1C(=O)N(C)c2ccc(Cl)cc2C2(c3ccccc3)N1C2(Cl)Cl (configuration not stated)
inactive: [2] > 100 µM | [3] > 100 µM | [17] 40 µM | [18] > 100 µM | [5] 47.8 µM | [6] 46.5 µM | [7] > 100 µM | [8] 40.3 µM | [10] > 100 µM | [12] 56.5 µM | [13] 66.8 µM

COc1cc2c3cc1Oc1c(OC)c(OC)cc4c1C(Cc1ccc(cc1)Oc1cc(ccc1O)CC3N(C)CC2)N(C)CC4 (configuration not stated)
inactive: [1] 14.9 µM and 8.99 µM | [15] 10.1 µM | [16] 11.9 µM | [17] 10.4 µM | [18] 13.6 µM | [4] 10.1 µM | [5] 12.8 µM and 17.1 µM | [6] 6.64 µM | [7] 14.1 µM and 10.8 µM | [19] 20.9 µM | [10] 10.3 µM and 8.36 µM | [11] 11.3 µM | [12] 12.1 µM and 22.8 µM

CCNc1nnc(-c2nsc3ccccc23)s1
inactive: [1] > 100 µM | [2] 62.4 µM | [3] 67.6 µM | [17] 55.3 µM | [18] 94.2 µM | [5] 45.5 µM | [6] 65.3 µM | [7] 23.5 µM | [8] > 100 µM | [9] 16.3 µM | [19] 62.1 µM | [10] > 100 µM | [12] > 100 µM | [13] > 100 µM

CCCCCCCC/C=C\CCCCCCCCCCCC(=O)O [ERUCIC ACID]
inactive: [1] 38.5 µM | [3] 44.1 µM | [17] 38.3 µM | [5] 25.5 µM | [6] 45.6 µM | [7] 52.4 µM | [8] 18.8 µM | [9] 30.8 µM | [19] 44.4 µM | [10] 31.6 µM | [13] 58.2 µM | [20] 1.48 µM

Reference: ChEMBL document CHEMBL1201862, “PubChem BioAssay data set” (2004)
